Reference: patent US8445539B2, “Alpha-aminoamide derivatives useful in the treatment of psychiatric disorders” (priority 2007, dated 2013)

Columns and labels:
[1] = test system: MK-801-induced PPI disruption; experiment: Prepulse inhibition of startle with disruption by MK-801; format: in vivo, Wistar rats; conditions: for Percentage of inhibition: % PPI; for Percentage of inhibition / Acoustic tone alone / Startle amplitude on prepulse + pulse trials: pretreatment ralfinamide methanesulfonate 90 mg/kg oral, mean ± SEM; for Acoustic tone alone / Startle amplitude on prepulse + pulse trials: startle amplitude
Excerpt: Prepulse inhibition (PPI) is a cross-species phenomenon (i.e., it is present in mammals ranging from mice to humans), yet it is relatively impaired among schizophrenic patients. The PPI procedure is used to assess the subject's ability to “gate” or filter environmental information. In the acoustic (startle model) of sensorimotor gating a weak acoustic stimulus (prepulse) decrease the reflexive flinching response (startle) produced by a second, more intense, stimulus (the pulse). Drugs like dizocilpine (MK-801) or amphetamine disrupt PPI and represent an animal model of schizophrenia; antipsychotic drugs are able to prevent PPI deficit. The test is quite useful to screen potential antipsychotic drugs.
Methods: Male Wistar rats, weighing 200-300 g were used. Apparatus: All startle and PPI testing has been performed in four startle chambers. Each ventilated illuminated and sound proof chamber contained a clear non-restrictive Plexiglas cylinder resting on a platform. A high-frequency loudspeaker inside the chamber produced both a continuous background noise of 70 dB and the various acoustic stimuli. Vibrations of the Plexiglas cylinder caused by the whole-body startle response of the animal were transduced into analogue signals by a piezoelectric unit attached to the platform. These signals were then digitized and stored by a computer. Sixty-five readings were taken at 1-ms intervals starting at stimulus onset, and the average amplitude was used to determine the acoustic startle response. Sound levels is given in dB.
Prepulse inhibition session: After 5 min of habituation (background white noise, 70 dB), two types of acoustic stimuli were used: acoustic stimulus alone (120 dB, 40 ms) or the stimulus proceeded by a prepulse (76, 79, 82 dB, 40 ms) applied 100 ms before the stimulus. During each experimental session 20 trials of each type were presented with interstimulus interval of 20 s. The amplitudes were averaged for each individual animal, separately for both types of trials (stimulus alone or stimulus preceded by the prepulse). The degree of prepulse inhibition was shown as a percentage score (% PPI) calculated as […] a difference between the amplitude of the pulse-alone (P) and the amplitude of the prepulse+pulse trials (PP+P), divided by the amplitude of the pulse-alone trials and multiplied by 100. […] Substances and treatments: MK-801 0.2 mg/kg was dissolved in saline and was given i.p. In each experiment, […] were assigned to receive either compounds of the disclosure or vehicle and were tested in the PPI session using a between-subjects design. The order of drug treatment for the first experiment was test-compound, followed by MK-801; for the second experiment rats received test-compound and then amphetamine. Statistical Analysis: Multiple ANOVA was conducted followed by Dunnett's post hoc test.

[2] = test system: d-amphetamine-induced PPI impairment; experiment: Amphetamine-induced PPI deficit (ralfinamide and haloperidol association); format: in vivo; conditions: ralfinamide methanesulfonate per se 60 mg/kg p.o.; d-amphetamine 2.5 mg/kg s.c.; rats
Method: A PPI test, carried out according to the method described in Example 4, was performed in rats.

MAO-B = MAO-B (Rattus norvegicus, UniProt P19643); experiment: biochemical
Sequence of MAO-B (P19643 whole entry): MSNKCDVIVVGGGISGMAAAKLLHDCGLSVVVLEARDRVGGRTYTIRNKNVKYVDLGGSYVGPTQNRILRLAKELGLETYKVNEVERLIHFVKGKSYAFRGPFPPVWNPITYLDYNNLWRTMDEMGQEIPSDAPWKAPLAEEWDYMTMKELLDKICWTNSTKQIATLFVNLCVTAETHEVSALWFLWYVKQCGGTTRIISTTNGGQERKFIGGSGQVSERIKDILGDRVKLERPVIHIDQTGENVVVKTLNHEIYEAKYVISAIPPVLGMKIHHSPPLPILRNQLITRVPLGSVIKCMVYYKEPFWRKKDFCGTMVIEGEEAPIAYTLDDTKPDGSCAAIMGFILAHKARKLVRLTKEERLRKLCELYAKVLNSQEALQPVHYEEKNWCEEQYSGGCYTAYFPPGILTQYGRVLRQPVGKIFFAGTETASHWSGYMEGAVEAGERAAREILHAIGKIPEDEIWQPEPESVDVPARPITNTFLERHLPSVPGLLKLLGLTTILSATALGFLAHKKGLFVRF
Method: The crude homogenate was centrifuged at 2220 rpm for 10 minutes at +4° C. and the supernatant recovered. The pellet was homogenized and centrifuged again. The two supernatants were pooled and centrifuged at 9250 rpm for 10 minutes. The pellet was resuspended in fresh buffer and centrifuged at 11250 rpm for 10 minutes at +4° C. The resulting pellet was stored at −80° C.
The mitochondrial pellet (500 μg protein) was resuspended in 0.1 M phosphate buffer (pH 7.4). 500 μl of the suspension were added to a 50 μl solution of the test compound or buffer, and incubated for 30 min at 37° C. (preincubation) then the substrate (50 μl) was added. […] (^14C-PEA, 0.5 μM).
The amount of neutral and/or acidic metabolites formed as a result of MAO activity was obtained by measuring the radioactivity of the eluate.
The activity of MAO in the sample, corresponding to a percentage of radioactivity compared with the control activity in the absence of the inhibitor, was expressed as nmoles of substrate transformed/mg protein/min.

[3] = treatment MK-801 0.2 mg/kg i.p.

**Q.** With `C[C@H](NCc1ccc(OCc2ccccc2F)cc1)C(N)=O` [Ralfinamide methanesulfonate, (S)-(+)-2-[4-(2-fluorobenzyloxy)benzylamino]propanamide] as the compound, how does the Percentage of inhibition [1, 3] read?
**A.** Its Percentage of inhibition is 21.92 ± 0.40 %.

**Q.** And the Percentage of inhibition ([1]; treatment vehicle)?
**A.** The Percentage of inhibition was 44.16 ± 3.54%.

**Q.** And the “Reversing the disruptive effect of MK-801 on PPI” value ([1]; orally, 90 mg/kg)?
**A.** The value was “active”.

**Q.** And the Acoustic tone alone [1, 3]?
**A.** The Acoustic tone alone was 38.50 ± 1.36.

**Q.** And the “Startle amplitude on prepulse + pulse trials” value [1, 3]?
**A.** The value was 30.00 ± 0.90.

**Q.** And the Acoustic tone alone ([1]; treatment vehicle)?
**A.** The Acoustic tone alone was 35.50 ± 0.45.

**Q.** And the “Startle amplitude on prepulse + pulse trials” value ([1]; treatment vehicle)?
**A.** Its value is 20.00 ± 1.51.

**Q.** And the “Reversal of PPI impairment induced by d-amphetamine” value [2]?
**A.** The value was “did not reverse”.

**Q.** And the IC50 (MAO-B)?
**A.** The IC50 was 0.132 µM.
